Experimental data reported in patent publication US20240358731A1, “SUMO PATHWAY AS AN OXYGEN SENSOR RELEVANT TO THE PATHOPHYSIOLOGY OF PULMONARY ARTERY HYPERTENSION AND CARDIAC ARRHYTHMIA” (Northeastern University, priority 2023, published 2024).
Entries after “also recorded” stand apart in the source; their conditions may differ.

Experiments:
[1] = system: Kir2.4 channels; assay: Whole-cell patch-clamp of Kir2.4 currents in transfected HEK293T cells under acute hypoxia; type: cell-based, human
Experimental: Hypoxia diminishes Kir2.4 activity in a TAK981 sensitive manner. HEK293T cells were transiently transfected with plasmid DNA for Kir2.4 channels. Inward rectifying currents were elicited in response to a high [K]^+ (140 mM) buffer using a −80 mV to +80 mV ramp protocol. Following stabilization in the high K^+ buffer, the cells were subjected to a hypoxic (2% O2) perfusate. Acute hypoxia evoked a ˜30% decrease in Kir2.4 currents. Recordings were terminated with the perfusion of 10 mM Ba^2+ (FIGS. 3A, 3B).
Next, we repeated the experiment using that were preincubated with 100 nM TAK981 for one hour. We observed that the hypoxic decrease in Kir2.4 currents was abolished in cells pre-treated with TAK981 (FIGS. 3C, 3D).

[2] = molecular target: T1, Kir2.4 (Homo sapiens, UniProt Q9UNX9); assay: Two-electrode voltage-clamp of Kir2.4 currents in Xenopus oocytes; type: cell-based; design: expressed in transfected cells; host or cells: Xenopus oocytes (RNA injection); details: expression of SENP1
T1 sequence (Q9UNX9 1-436): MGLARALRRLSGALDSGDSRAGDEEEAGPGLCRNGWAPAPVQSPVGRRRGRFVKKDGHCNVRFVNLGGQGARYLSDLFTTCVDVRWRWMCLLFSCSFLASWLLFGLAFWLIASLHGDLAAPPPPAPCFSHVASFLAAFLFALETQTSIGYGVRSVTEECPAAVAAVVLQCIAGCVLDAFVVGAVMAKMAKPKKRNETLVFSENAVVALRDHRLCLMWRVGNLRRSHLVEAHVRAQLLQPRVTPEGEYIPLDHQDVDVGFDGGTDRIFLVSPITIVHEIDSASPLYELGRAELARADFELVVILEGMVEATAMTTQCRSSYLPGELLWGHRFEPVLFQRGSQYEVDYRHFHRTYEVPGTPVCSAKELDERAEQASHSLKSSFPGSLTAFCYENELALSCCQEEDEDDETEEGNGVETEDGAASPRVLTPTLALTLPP
Description: FIG. 5A discloses SEQ ID NOS 6-9, respectively, in order of appearance. […] SENP1 increases the current. […] SUMO sensitivity is transferred to Kir2.3 when the site in Kir2.1 is recreated by mutagenesis (Kir2.3-N25D).
Co-expressed SUMO decreases Kir2.4 currents in Xenopus oocytes. Using the SUMOplot algorithm to assess potential SUMOylation sites based on the canonical motif ψ-K-X-E/D, we identified the high probability SUMO site V-K54-K-D (SEQ ID NO: 4) in the N-terminal sequence of Kir2.4. SUMO covalently modifies Kir2.4 at K54 (FIG. 5) and tested the idea using two-electrode voltage-clamp (TEVC), a sensitive assay to study the regulation of Kir channels. Kir2.4 currents, assessed at −80 mV in a high K^+ (96 mM) bath solution, decreased in a dose-dependent manner with co-expression of SUMO1 (FIG. 5). Co-injection of 5 ng of human SUMO1 RNA decreased Kir2.4 currents by ˜50%. In contrast, expression of SENP1 increased Kir2.4 by ˜50%. […] The analogous sequence in Kir2.2 and Kir2.3 is V-K-K-N(SEQ ID NO: 5), which lacks the terminal aspartic acid, reduced the probability of SUMOylation from 0.93 to 0.31. Consistent with this, Kir2.3 currents were insensitive to SUMO1 and SENP1. […] This last result is consistent with a protein-protein interaction between the channel and SUMO1.

Molecule: Cc1sc(C(=O)c2cncnc2N[C@@H]2C[C@H](COS(N)(=O)=O)[C@@H](O)C2)cc1[C@@H]1NCCc2ccc(Cl)cc21 [TAK981, Subasumstat]
- effect on hypoxic decrease in Kir2.4 currents ([1]; preincubated with 100 nM for one hour, 2% O2): abolished; also recorded: precludes hypoxic inhibition of Kir2 currents
- tolerability of pretreatment in cells ([1]; pretreating cells): tolerated by the cells

B1: SENP1: purified deSUMOylating enzyme (SUMO specific protease) introduced via the recording pipette or expressed (protein, UniProt Q9P0U3 1-644, looked up)
Sentrin-specific protease 1: MDDIADRMRMDAGEVTLVNHNSVFKTHLLPQTGFPEDQLSLSDQQILSSRQGHLDRSFTCSTRSAAYNPSYYSDNPSSDSFLGSGDLRTFGQSANGQWRNSTPSSSSSLQKSRNSRSLYLETRKTSSGLSNSFAGKSNHHCHVSAYEKSFPIKPVPSPSWSGSCRRSLLSPKKTQRRHVSTAEETVQEEEREIYRQLLQMVTGKQFTIAKPTTHFPLHLSRCLSSSKNTLKDSLFKNGNSCASQIIGSDTSSSGSASILTNQEQLSHSVYSLSSYTPDVAFGSKDSGTLHHPHHHHSVPHQPDNLAASNTQSEGSDSVILLKVKDSQTPTPSSTFFQAELWIKELTSVYDSRARERLRQIEEQKALALQLQNQRLQEREHSVHDSVELHLRVPLEKEIPVTVVQETQKKGHKLTDSEDEFPEITEEMEKEIKNVFRNGNQDEVLSEAFRLTITRKDIQTLNHLNWLNDEIINFYMNMLMERSKEKGLPSVHAFNTFFFTKLKTAGYQAVKRWTKKVDVFSVDILLVPIHLGVHWCLAVVDFRKKNITYYDSMGGINNEACRILLQYLKQESIDKKRKEFDTNGWQLFSKKSQEIPQQMNGSDCGMFACKYADCITKDRPINFTQQHMPYFRKRMVWEILHRKLL
- increase of Kir2.4 currents [2]: ~50%
